Reference: patent US20200038513A1, “MODULATORS OF FAK PROTEOLYSIS AND ASSOCIATED METHODS OF USE” (ARVINAS OPERATIONS, INC., priority 2018, published 2020)
Where two headings read alike, the source gives them in different places.

Key:
[1] = tested on: p-Fak(Y397); experiment: Fak activation, western blot in PC3 cells; type: cell-based, human; settings: serum deprived PC3 cells, 24 h
Experimental: If not indicated otherwise, cells were seeded and grown to 80% confluency and were treated with compound or control for 24 hours. Subsequently, the growth media was removed and the cells lysed by the addition of lysis buffer (25 mM Tris, pH 7.4; 1% NP-40, 0.25% deoxycholate, 1 mM sodium vanadate, 10 mM sodium fluoride, 10 mM sodium pyrophosphate, 20 mM β-glycerophosphate and 1× complete EDTA-free protease inhibitor cocktail (Roche)). After 20 minutes the mixture was spun down at 16,000×g for 10 minutes at 4° C. to pellet insoluble materials. Protein concentration of supernatants were determined via BCA assay (Thermo Fisher) before addition of NuPAGE sample buffer containing 5% β-Me and boiling at 95° C. for 10 minutes. Equal amounts of protein were subjected to SDS-PAGE and subsequent electrophoretic transfer onto nitrocellulose membrane. Rabbit antibodies were purchased from Cell Signaling: Fak (3285), p-Fak (3283), p-Paxillin (2541), p-Akt (S473)(4060), GAPDH (2118), Androgen Receptor (5153), p-Src(Y527)(2105), p-S6RP (2215). Mouse antibodies were purchased from Cell Signaling: tubulin (3873), S6RP (2317). Secondary antibody ∝-rabbit (31460) or ∝-mouse (31444) was coupled to horseradish peroxidase and purchased from Thermo Fisher. Immunoblots were developed using enhanced chemiluminescence and visualized using a Bio-Rad Chemi-Doc MP Imaging System and quantitated with Image Lab v.5.2.1 software (Bio-Rad Laboratories). Data analysis and statistics was performed using Prism 7.0 (GraphPad).
Fak levels are undetectable at concentrations of 100 nM through 1 μM of exemplary compound 102, and slightly rebound at concentrations of 5 μM (10%) and 10 μM (27%) due to an observed hook effect. […] Paxillin, a downstream target of the Fak-Src complex, has been associated with cell migration. […] Akt is a kinase that is tied to the Fak signaling cascade via PI3K, but can be activated through other pathways as well. […] A maximum p-Akt suppression of 93% is observed at 1 μM of exemplary compound 102. […]

[2] = Pharmacokinetics of intraperitoneal or intravenous injection in CD1 mice; type: in vivo; settings: for Conc. (ng/mL) Mouse 1 / Conc. (ng/mL) Mouse 2 / Conc. (ng/mL) Mouse 3 / concentration at 0.25 h / concentration at 0.5 h / concentration at 1 h / concentration at 2 h / concentration at 4 h / concentration at 8 h / concentration at 0.033 h / concentration at 0.083 h: CD1 mice plasma; for concentration at 0.25 h / concentration at 0.5 h / concentration at 1 h / concentration at 2 h / concentration at 4 h / concentration at 8 h / AUC(0-t) / half-life / concentration at 0.033 h / concentration at 0.083 h: male, CD1, mouse, plasma
Summary of the method: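 Male CD1 mice, 6-8 weeks old, 3 per group, dosed IV (5 s injection; 10% HP-b-CD, 40 mM sodium acetate, 40 mM NaCl, pH 4.5) or IP (5% EtOH, 5% Solutol HS15 in D5W). Serial dorsal metatarsal vein blood, terminal heart puncture; plasma analysed by LC/MS/MS after acetonitrile precipitation, calibration 1-2000 ng/mL.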

[3] = PPB; type: in vitro ADME; settings: plasma
[4] = ip, 10 mg/kg, IP 10 mg/kg, read-out: Conc. (ng/mL) Mouse 1
[5] = ip, 10 mg/kg, IP 10 mg/kg, read-out: Conc. (ng/mL) Mouse 2
[6] = ip, 10 mg/kg, IP 10 mg/kg, read-out: Conc. (ng/mL) Mouse 3
[7] = ip, 10 mg/kg, IP 10 mg/kg, read-out: Mean
[8] = iv, 1 mg/kg, IV 1.0 mg/kg, read-out: Conc. (ng/mL) Mouse 1
[9] = iv, 1 mg/kg, IV 1.0 mg/kg, read-out: Conc. (ng/mL) Mouse 2
[10] = iv, 1 mg/kg, IV 1.0 mg/kg, read-out: Conc. (ng/mL) Mouse 3
[11] = iv, 1 mg/kg, IV 1.0 mg/kg, read-out: Mean

With `Cc1ncsc1-c1ccc(CNC(=O)[C@@H]2C[C@@H](O)CN2C(=O)[C@@H](NC(=O)CCOCCOc2ccc(Nc3ncc(C(F)(F)F)c(NCc4cccc(N(C)S(C)(=O)=O)c4)n3)cc2)C(C)(C)C)cc1` [Compound 102, (2S,4R)-1-((S)-3,3-dimethyl-2-(3-(2-(4-((4-((3-(N-methylmethylsulfonamido)benzyl)amino)-5-(trifluoromethyl)pyrimidin-2-yl)amino)phenoxy)ethoxy)propanamido)butanoyl)-4-hydroxy-N-(4-(4-methylthiazol-5-yl)benzyl)pyrrolidine-2-carboxamide] the p-Fak levels ([1]; between 100 nM and 5 μM) was “less than 5%”, the “Fak activation (p-Fak(Y397)) compared to DMSO (in words)” value ([1]; increasing concentrations) was “significantly reduced” and the “Conc. (ng/mL) Mouse 1” value ([2]; IP 10 mg/kg, 24 h) was “BLOQ”. For the same compound, the “Conc. (ng/mL) Mouse 2” value ([2]; IP 10 mg/kg, 24 h) was “BLOQ”, the “Conc. (ng/mL) Mouse 3” value ([2]; IP 10 mg/kg, 24 h) was “BLOQ” and the “Conc. (ng/mL) Mouse 1” value ([2]; IV 1.0 mg/kg, 4 h) was “BLOQ”. For the same compound, the “Conc. (ng/mL) Mouse 2” value ([2]; IV 1.0 mg/kg, 4 h) was “BLOQ”, the “Conc. (ng/mL) Mouse 1” value ([2]; IV 1.0 mg/kg, 8 h) was “BLOQ” and the “Conc. (ng/mL) Mouse 2” value ([2]; IV 1.0 mg/kg, 8 h) was “BLOQ”. For the same compound, the “Conc. (ng/mL) Mouse 3” value ([2]; IV 1.0 mg/kg, 8 h) was “BLOQ”, the “Conc. (ng/mL) Mouse 1” value ([2]; IV 1.0 mg/kg, 24 h) was “BLOQ” and the “Conc. (ng/mL) Mouse 2” value ([2]; IV 1.0 mg/kg, 24 h) was “BLOQ”. The “Conc. (ng/mL) Mouse 3” value ([2]; IV 1.0 mg/kg, 24 h) was “BLOQ”, the concentration at 0.25 h [2, 4] was 521 ng/mL and the concentration at 0.25 h [2, 5] was 432 ng/mL. The concentration at 0.25 h [2, 6] was 338 ng/mL, the concentration at 0.25 h [2, 7] was 431 ng/mL and the concentration at 0.5 h [2, 4] was 674 ng/mL. The concentration at 0.5 h [2, 5] was 546 ng/mL, the concentration at 0.5 h [2, 6] was 551 ng/mL and the concentration at 0.5 h [2, 7] was 591 ng/mL. The concentration at 1 h [2, 4] was 2540 ng/mL, the concentration at 1 h [2, 5] was 2130 ng/mL and the concentration at 1 h [2, 6] was 2120 ng/mL. The concentration at 1 h [2, 7] was 2260 ng/mL, the concentration at 2 h [2, 4] was 1690 ng/mL and the concentration at 2 h [2, 5] was 1070 ng/mL. It also gave a concentration at 2 h [2, 6] of 1700 ng/mL, a concentration at 2 h [2, 7] of 1490 ng/mL and a concentration at 4 h ([2]; ip, 10 mg/kg, IP 10 mg/kg, 4 h, read-out: Conc. (ng/mL) Mouse 1) of 560 ng/mL. For the same compound, the concentration at 4 h ([2]; ip, 10 mg/kg, IP 10 mg/kg, 4 h, read-out: Conc. (ng/mL) Mouse 2) was 529 ng/mL, the concentration at 4 h ([2]; ip, 10 mg/kg, IP 10 mg/kg, 4 h, read-out: Conc. (ng/mL) Mouse 3) was 559 ng/mL and the concentration at 4 h ([2]; ip, 10 mg/kg, IP 10 mg/kg, 4 h, read-out: Mean) was 549 ng/mL. The concentration at 8 h ([2]; ip, 10 mg/kg, IP 10 mg/kg, 8 h, read-out: Conc. (ng/mL) Mouse 1) was 36.4 ng/mL, the concentration at 8 h ([2]; ip, 10 mg/kg, IP 10 mg/kg, 8 h, read-out: Conc. (ng/mL) Mouse 2) was 92.3 ng/mL and the concentration at 8 h ([2]; ip, 10 mg/kg, IP 10 mg/kg, 8 h, read-out: Conc. (ng/mL) Mouse 3) was 124 ng/mL. It also gave a concentration at 8 h ([2]; ip, 10 mg/kg, IP 10 mg/kg, 8 h, read-out: Mean) of 84 ng/mL, an AUC(0-t) ([2]; ip, 10 mg/kg, read-out: AUClast (h * ng/mL) IP) of 6260 ng·h/mL and a half-life ([2]; ip, 10 mg/kg, read-out: T ½ (h) IP (converted)) of 1.46 h. The concentration at 0.033 h [2, 8] was 1920 ng/mL, the concentration at 0.033 h [2, 9] was 1820 ng/mL and the concentration at 0.033 h [2, 10] was 1850 ng/mL. For the same compound, the concentration at 0.033 h [2, 11] was 1860 ng/mL, the concentration at 0.083 h [2, 8] was 249 ng/mL and the concentration at 0.083 h [2, 9] was 368 ng/mL. The concentration at 0.083 h [2, 10] was 333 ng/mL, the concentration at 0.083 h [2, 11] was 317 ng/mL and the concentration at 0.25 h [2, 8] was 55.9 ng/mL. The concentration at 0.25 h [2, 9] was 67.4 ng/mL, the concentration at 0.25 h [2, 10] was 71.8 ng/mL and the concentration at 0.25 h [2, 11] was 65.1 ng/mL. It also gave a concentration at 0.5 h [2, 8] of 23.7 ng/mL, a concentration at 0.5 h [2, 9] of 33.2 ng/mL and a concentration at 0.5 h [2, 10] of 37.6 ng/mL. It also gave a concentration at 0.5 h [2, 11] of 31.5 ng/mL, a concentration at 1 h [2, 8] of 11.8 ng/mL and a concentration at 1 h [2, 9] of 16.7 ng/mL. It also gave a concentration at 1 h [2, 10] of 18.4 ng/mL, a concentration at 1 h [2, 11] of 15.6 ng/mL and a concentration at 2 h [2, 8] of 6.9 ng/mL. The concentration at 2 h [2, 9] was 9.2 ng/mL, the concentration at 2 h [2, 10] was 6.75 ng/mL and the concentration at 2 h [2, 11] was 7.62 ng/mL. For the same compound, the concentration at 4 h ([2]; iv, 1 mg/kg, IV 1.0 mg/kg, 4 h, read-out: Conc. (ng/mL) Mouse 3) was 2.09 ng/mL, the AUC(0-t) ([2]; iv, 1 mg/kg, read-out: AUClast (h * ng/mL) IV) was 264 ng·h/mL and the half-life ([2]; iv, 1 mg/kg, read-out: T ½ (h) IV (converted)) was 0.905 h. For the same compound, the fraction unbound [3] was 0.0066.
